Experimental data: patent US11275071B2, “Sensor dyes for real-time sensing of metal ions in aqueous environments” (UWM Research Foundation, Inc., priority 2015, dated 2022)

Experiments:
[1] = Metal response of PAN-7OH, absorbance at pH 7; type: binding; conditions: 25 μM PAN-7OH, 250 μM metal ion, pH 7 buffer, 2 mM Triton X-100
Experimental: (§1) Solutions were made containing 25 μM PAN-7OH and 250 μM metal ion (excess amount) in pH 7 buffer containing 2 mM Triton X-100.

[2] = Metal response of PAN-7OH, absorbance at pH 7; type: binding; conditions: 25 μM PAN-7OH, 250 μM metal ion, pH 7 buffer, 2 mM Triton X-100; remark: listed apart in the source
Experimental: as §1

[3] = Metal response of PAN-7OH, absorbance at pH 7; type: binding; conditions: 25 μM PAN-7OH, 250 μM metal ion, pH 7 buffer, 2 mM Triton X-100; remark: listed apart in the source
Experimental: as §1

[4] = Metal response of PAN-7OH, absorbance at pH 7; type: binding; conditions: 25 μM PAN-7OH, 250 μM metal ion, pH 7 buffer, 2 mM Triton X-100; remark: listed apart in the source
Experimental: as §1

[5] = Metal response of PAN-7OH, absorbance at pH 7; type: binding; conditions: 25 μM PAN-7OH, 250 μM metal ion, pH 7 buffer, 2 mM Triton X-100; remark: listed apart in the source
Experimental: as §1

[6] = Metal response of PAN-7OH, absorbance at pH 7; type: binding; conditions: 25 μM PAN-7OH, 250 μM metal ion, pH 7 buffer, 2 mM Triton X-100; remark: listed apart in the source
Experimental: as §1

[7] = Metal response of PAN-7OH, absorbance at pH 7; type: binding; conditions: 25 μM PAN-7OH, 250 μM metal ion, pH 7 buffer, 2 mM Triton X-100; remark: listed apart in the source
Experimental: as §1

[8] = Metal response of PAN-7OH, absorbance at pH 7; type: binding; conditions: 25 μM PAN-7OH, 250 μM metal ion, pH 7 buffer, 2 mM Triton X-100; remark: listed apart in the source
Experimental: as §1

[9] = Metal response of PAN-7OH, absorbance at pH 7; type: binding; conditions: 25 μM PAN-7OH, 250 μM metal ion, pH 7 buffer, 2 mM Triton X-100; remark: listed apart in the source
Experimental: as §1

[10] = Metal response of PAN-7OH, absorbance at pH 7; type: binding; conditions: 25 μM PAN-7OH, 250 μM metal ion, pH 7 buffer, 2 mM Triton X-100; remark: listed apart in the source
Experimental: as §1

[11] = Metal response of PAN-7OH, absorbance at pH 7; type: binding; conditions: 25 μM PAN-7OH, 250 μM metal ion, pH 7 buffer, 2 mM Triton X-100; remark: listed apart in the source
Experimental: as §1

[12] = Metal response of PAN-7OH, absorbance at pH 7; type: binding; conditions: 25 μM PAN-7OH, 250 μM metal ion, pH 7 buffer, 2 mM Triton X-100; remark: listed apart in the source
Experimental: as §1

[13] = Metal response of PAN-7OH, absorbance at pH 7; type: binding; conditions: 25 μM PAN-7OH, 250 μM metal ion, pH 7 buffer, 2 mM Triton X-100; remark: listed apart in the source
Experimental: as §1

[14] = Protonation states of free PAN-7OH, pKA; type: physicochemical; conditions: free dye; site 1-OH (Metal Binding)
Experimental: The acid dissociation constants (pKA) and spectral profiles were determined for PAN-70H. PAN-7OH has three protonation sites: The heterocyclic nitrogen in the pyridyl moiety, and the two hydroxyl groups on the naphthalene ring. […] The latter group can potentially be used for covalent attachment of the sensor to a substrate.
The buffer reagents were treated with Chelex-100 to remove trace metal impurities. The samples were prepared containing 25 μM PAN-7OH in a 0.1 M pH buffer containing 2 mM Triton X-100 surfactant.
The data was analyzed using ReactLab Equilibria to determine the resulting pKA values. PAN-7OH has three protonation sites, so four species were used for the analysis model. The pKA values were assigned using values from well-known molecules with a similar structure. […] No error propagation calculations were performed here.

[15] = Protonation states of Zn-(PAN-7OH) complexes

Oc1ccc2ccc(O)c(N=Nc3ccccn3)c2c1 [PAN-7OH]
absorbance change relative to the free dye [1]: red-shifted absorbance
absorbance change relative to the free dye ([1]; minor): red-shifted absorbance
absorbance change relative to the free dye [2]: red-shifted absorbance
absorbance change relative to the free dye [3]: red-shifted absorbance
absorbance change relative to the free dye [4]: red-shifted absorbance
absorbance change relative to the free dye [5]: red-shifted absorbance
absorbance change relative to the free dye [6]: red-shifted absorbance
absorbance change relative to the free dye [7]: blue-shifted absorbance
absorbance change relative to the free dye [8]: blue-shifted absorbance
absorbance change relative to the free dye [9]: did not exhibit an appreciable absorbance change
absorbance change relative to the free dye [10]: did not exhibit an appreciable absorbance change
absorbance change relative to the free dye [11]: did not exhibit an appreciable absorbance change
absorbance change relative to the free dye [12]: did not exhibit an appreciable absorbance change
absorbance change relative to the free dye [13]: did not exhibit an appreciable absorbance change
pKA [14]: 12.258
pH at which the Zn-(PAN-7OH) complexes decomposed, strongly alkaline conditions [15]: > 12 pH
pH at which the Zn-(PAN-7OH) complexes decomposed, weakly acidic conditions [15]: < 6 pH
Acidic Dissociation ([15]; Zn(PAN-7OH)2H2 decomposition under acidic conditions, midpoint of species distribution curve): 5.272
Alkaline Dissociation ([15]; Zn(PAN-7OH)2^2− decomposition, zinc hydroxide formation, strongly alkaline conditions, midpoint of curve): 13.164
Complex pKA ([15]; non-binding hydroxyl group in the Zn-(PAN-7OH) complex, 20 μM PAN-7OH, 20 μM zinc): 10.449
